Key:
[1] = tested on: Loblolly pine megagametophytes; experiment: Initiation frequency of embryogenic cultures from Loblolly pine megagametophyte explants; format: cell-based
Procedure: Explants were megagametophytes isolated from Loblolly pine summer cones when embryos were at approximately stage 2-4. Seeds were. collected from four individual trees of diverse genotypes. Extracted seeds were soaked in running water for 10 minutes, agitated in 10% liquinox supplemented with 1.1 ml/l of Tween 20 for 10 minutes, and rinsed with water for 30 minutes. Seeds were sterilized in a laminar flow hood by agitating in 20% hydrogen peroxide for 10 minutes and rinsing with sterile deionized water. The seed coat, integuments, and nucellus were removed to isolate the megagametophytes. Culturing was performed in 24-well multi-well culture plates with each well having an approximate volume of 3.0 ml. Two ml of media was poured into each well.
Each replication consisted of eight adjacent wells on a multi-well plate, with one megagametophyte per well, providing three replications per multi-well plate. Twelve replications (for a total of 96 explants) were performed per treatment for each cone collection. The well plates were wrapped in Parafilm®, elastic wrap to minimize evaporation and incubated at 22-24° C. under dark conditions for nine weeks. Initiation frequency was scored for each dish by counting the number of explants which had successfully initiated embryogenic cultures.
The media treatments consisted of: (1) a control media #1043 (see Table 21); (2) media #1218, comprising media #1043 supplemented with 250 mg/l MES buffer; (3) media #1043 supplemented with 0.5 ppm folic acid and 0.05 ppm biotin; and (4) media #1218 supplemented with 0.5 ppm folic acid and 0.05 ppm biotin.
A representative procedure is shown for Loblolly pine. Experimental procedure follow similarly for other conifer but differ slightly in the composition of media used. […] Here, however, each treatment-genotype test consisted of ten replications of ten explants.
The cultures were covered and incubated in the dark at 24-26° C. for nine weeks.
Explants from four Loblolly pine cone collections were prepared and cultured as described in Example 2. The media treatments consisted of control media, #1218, which is media #1043 supplemented. with 250 mg/l MES, and four treatment media, which consist of media #1218 supplemented with 0.33, 1.0, 2.0, and 3.0 ppm paclobutrazol, respectively.
Four cone collections with embryos at stages 2-4 were used. Eighty explants from each cone collection on each media were tested. Seeds were removed from cones and soaked in running water for 10 min. Seeds were then agitated in 10% liquinox containing 1.1 ml/l Tween 20 for 10 min., and then rinsed with running tap water for 30 min. After transferring to a sterile hood, seeds were agitated in 20% H2O2 for 10 min., rinsed with sterile nanopure® H2O five times for 5 to 10 min. intervals, and then placed into a sterile petri dish for dissection. Seeds were dissected by splitting the seed coat, removing the integuments and nucellus. The megagametophyte was placed onto the appropriate medium. Each multi-well test plate contained 2 ml of solid media. Plates were incubated in the dark for 8 weeks and then scored.
The control media, media #1253, is described in detail in Table 16. All test media, #1275, #1421, #1422, and #1423 were comprised of the control media with the addition of a gibberellin inhibitor.

[2] = tested on: Loblolly pine embryogenic cultures; experiment: Growth of Loblolly pine embryogenic cultures from single somatic embryos (tissue diameter, area); format: cell-based; settings: for Diameter of tissue (mm) / Approximate tissue area (mm^2): four weeks; for Diameter of tissue (mm): control 4.01; for Approximate tissue area (mm^2): control 12.6
Procedure: Three previously initiated Loblolly pine embryogenic cultures, each representing a different genotype, were grown in liquid media #1133, used as starting material for embryogenic cultures on various treatment media. Using a dissecting scope, individual stage 2 somatic embryos were extracted and placed on treatment media in the center of individual wells on a well plate. Forty embryos were prepared per treatment media, per genotype. Well plates were wrapped in Parafilm® and cultured under standard conditions at room temperature in the dark for four weeks. Embryogenic cultures derived from the single isolated embryos proliferated and spread over the surface of the culture medium. Spreading cultures were roughly circular in shape, radiating from the central embryo. At the end of four weeks, the growth of each culture was measured by measuring colony diameter using a dissecting scope ocular micrometer. Five treatment media were compared to control media #1043 (Table 21). Three media consisted of #1043 supplemented with paclobutrazol at concentrations of 0.33, 1.0 and 3.0 ppm. A B-vitamin treatment contained biotin at 0.05 ppm and folic acid at 0.5 ppm. […] The pH of media containing four different concentrations of MES was compared to that of a non-buffered control media during eight weeks of embryogenic culture growth. Maintenance cultures were established on treatment media using single isolated somatic embryos. Maintenance cultures were prepared and cultured essentially as described in Example 5. The control media was #1043. (See Table 21). The treatment media consisted of #1043 supplemented with 250, 500, 1000 and 1500 mg/l MES. Media pH was adjusted to 5.7 within all treatments prior to autoclaving, pouring and solidification. Immediately after pouring the media, and thereafter at two week intervals, media pH was measured up to the eighth week of culture growth. At each sampling time, four cultures from each media-genotype treatment were destructively sampled to measure the pH of the media directly underlying the growing embryogenic tissue. This experiment measured the effects of ABA, vitamins, culturing in a closed container, and culturing at increased atmospheric pressure on the growth of embryogenic cultures. Maintenance cultures were prepared on well plates using single somatic embryos, essentially as described in Example 5.

Row | Compound | Initiation Frequency (%) ([1]; 0.33 ppm in buffered media #1218 (Media 1043 + 250 mg/l MES), control 40.5) | Initiation Frequency (%) ([1]; 0.33 ppm in media #1043, nine weeks, control 39.1) | Initiation Frequency (%) ([1]; 1.0 ppm in buffered media #1218 (Media 1043 + 250 mg/l MES), control 40.5) | Initiation Frequency (%) ([1]; 2.0 ppm in buffered media #1218 (Media 1043 + 250 mg/l MES), control 40.5) | Initiation Frequency (%) ([1]; 3.0 ppm in buffered media #1218 (Media 1043 + 250 mg/l MES), control 40.5) | Initiation Frequency (%) ([1]; base media #1253, 1.0 ppm paclobutrazol, 0.1062 ppm flurprimidol, 1.58 ppm chlormequat-Cl, 0.16 ppm succinic acid-dh, 8 weeks, dark, control 29.5) | Extrusion (%) ([1]; base media #1253, 1.0 ppm paclobutrazol, 0.1062 ppm flurprimidol, 1.58 ppm chlormequat-Cl, 0.16 ppm succinic acid-dh, 8 weeks, dark, control 58.6) | Diameter of tissue (mm) ([2]; 0.33 ppm in media #1043) | Approximate tissue area (mm^2) ([2]; 0.33 ppm in media #1043) | Diameter of tissue (mm) ([2]; 1.0 ppm in media #1043) | Approximate tissue area (mm^2) ([2]; 1.0 ppm in media #1043) | Diameter of tissue (mm) ([2]; 3.0 ppm in media #1043) | Approximate tissue area (mm^2) ([2]; 3.0 ppm in media #1043) | Initiation Frequency (%) ([1]; base media #1043, MES 250 mg/l, vitamins = 0.5 ppm folic acid + 0.05 ppm biotin, nine weeks, dark, control 42.9) | Growth of cultures, as measured by culture diameter, relative to the control ([2]; 250 mg/l MES in media #1043) | Growth of cultures, as measured by culture diameter, relative to the control ([2]; higher concentrations of MES (500, 1000, 1500 mg/l) in media #1043)
1 | CC(C)(C)[C@@H](O)[C@@H](Cc1ccc(Cl)cc1)n1cncn1 (racemic) [paclobutrazol] | 46.8% | 37.3% | 46.0% | 46.1% | 44.7% | 35.3% | 58.1% | 4.13 mm | 13.4 mm^2 | 5.00 mm | 19.6 mm^2 | 5.23 mm | 21.5 mm^2 | – | – | –
2 | O=S(=O)(O)CCN1CCOCC1 [MES, 2-(N-morpholino)-ethanesulfonic acid] | – | – | – | – | – | – | – | – | – | – | – | – | – | 47.7% | increased | inhibited
